Measurements taken from paper PMC6437697 (Journal of Medicinal Chemistry, 2019).

Tests used:
Experiment in all cases: KINOMEscan
Format in all cases: binding
Settings in all cases: read-out: % control activity remaining
[1] = biological target: T1, MST1R (Homo sapiens, UniProt Q04912)
T1 construct: purchased Eurofins DiscoverX KINOMEscan

[2] = biological target: T2, RET(V804M) (Homo sapiens, UniProt P07949, V804M)
T2 construct: purchased Eurofins DiscoverX KINOMEscan

[3] = biological target: T3, LIMK2 (Homo sapiens, UniProt P53671)
T3 construct: purchased Eurofins DiscoverX KINOMEscan

[4] = biological target: T4, PLK1 (Homo sapiens, UniProt P53350)
T4 construct: purchased Eurofins DiscoverX KINOMEscan

[5] = biological target: T5, NEK11 (Homo sapiens, UniProt Q8NG66)
T5 construct: purchased Eurofins DiscoverX KINOMEscan
T5 sequence (Q8NG66 1-645): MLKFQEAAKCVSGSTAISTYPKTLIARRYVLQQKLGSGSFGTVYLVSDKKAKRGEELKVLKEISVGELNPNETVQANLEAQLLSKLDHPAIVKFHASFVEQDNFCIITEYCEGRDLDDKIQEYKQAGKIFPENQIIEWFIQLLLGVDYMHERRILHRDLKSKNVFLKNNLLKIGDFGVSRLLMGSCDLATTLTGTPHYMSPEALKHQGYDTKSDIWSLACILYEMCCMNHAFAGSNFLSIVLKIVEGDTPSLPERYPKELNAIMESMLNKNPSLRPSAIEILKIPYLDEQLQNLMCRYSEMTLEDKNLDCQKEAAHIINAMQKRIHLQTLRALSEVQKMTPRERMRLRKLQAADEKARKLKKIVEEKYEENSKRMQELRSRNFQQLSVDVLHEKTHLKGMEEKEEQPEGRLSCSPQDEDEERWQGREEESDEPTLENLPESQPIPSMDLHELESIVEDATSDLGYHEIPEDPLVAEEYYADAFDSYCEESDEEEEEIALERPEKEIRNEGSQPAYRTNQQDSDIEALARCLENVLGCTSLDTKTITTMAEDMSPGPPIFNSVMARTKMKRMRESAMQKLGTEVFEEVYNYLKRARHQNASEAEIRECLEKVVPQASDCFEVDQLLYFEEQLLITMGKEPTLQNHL

[6] = biological target: T6, EGFR(L747-E749del, A750P) (Homo sapiens, UniProt P00533, A750P/DEL747-749)
T6 construct: purchased Eurofins DiscoverX KINOMEscan

[7] = biological target: T7, PCTK3 (Homo sapiens, UniProt Q07002)
T7 construct: purchased Eurofins DiscoverX KINOMEscan

[8] = biological target: T8, CASK (Homo sapiens, UniProt O14936)
T8 construct: purchased Eurofins DiscoverX KINOMEscan
T8 sequence (O14936 1-926): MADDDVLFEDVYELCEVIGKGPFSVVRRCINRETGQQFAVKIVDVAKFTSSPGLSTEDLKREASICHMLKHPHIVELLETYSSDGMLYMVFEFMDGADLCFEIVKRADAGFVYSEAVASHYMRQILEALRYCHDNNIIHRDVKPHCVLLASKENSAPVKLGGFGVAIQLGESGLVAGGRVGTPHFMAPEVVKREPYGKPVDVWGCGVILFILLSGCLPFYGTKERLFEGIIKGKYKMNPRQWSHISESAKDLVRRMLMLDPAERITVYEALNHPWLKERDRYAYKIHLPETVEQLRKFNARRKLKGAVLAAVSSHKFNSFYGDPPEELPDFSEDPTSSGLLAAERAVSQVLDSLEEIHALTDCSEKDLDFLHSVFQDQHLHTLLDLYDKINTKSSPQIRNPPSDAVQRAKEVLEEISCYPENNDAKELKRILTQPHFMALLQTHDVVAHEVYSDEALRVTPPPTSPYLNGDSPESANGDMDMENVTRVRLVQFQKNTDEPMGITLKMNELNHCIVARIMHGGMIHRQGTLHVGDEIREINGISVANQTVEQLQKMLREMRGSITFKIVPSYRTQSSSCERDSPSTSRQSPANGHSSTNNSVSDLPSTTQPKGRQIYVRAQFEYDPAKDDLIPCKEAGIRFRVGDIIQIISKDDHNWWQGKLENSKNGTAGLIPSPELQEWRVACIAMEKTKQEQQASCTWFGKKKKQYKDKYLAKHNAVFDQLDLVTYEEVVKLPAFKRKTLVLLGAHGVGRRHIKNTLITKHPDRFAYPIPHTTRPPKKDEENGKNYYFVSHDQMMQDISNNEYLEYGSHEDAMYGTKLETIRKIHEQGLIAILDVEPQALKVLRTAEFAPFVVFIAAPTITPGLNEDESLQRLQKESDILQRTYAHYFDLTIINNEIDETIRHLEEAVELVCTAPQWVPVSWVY

[9] = biological target: T9, TIE1 (Homo sapiens, UniProt P35590)
T9 construct: purchased Eurofins DiscoverX KINOMEscan

[10] = biological target: T10, DRAK2 (Homo sapiens, UniProt O94768)
T10 construct: purchased Eurofins DiscoverX KINOMEscan
T10 sequence (O94768 1-372): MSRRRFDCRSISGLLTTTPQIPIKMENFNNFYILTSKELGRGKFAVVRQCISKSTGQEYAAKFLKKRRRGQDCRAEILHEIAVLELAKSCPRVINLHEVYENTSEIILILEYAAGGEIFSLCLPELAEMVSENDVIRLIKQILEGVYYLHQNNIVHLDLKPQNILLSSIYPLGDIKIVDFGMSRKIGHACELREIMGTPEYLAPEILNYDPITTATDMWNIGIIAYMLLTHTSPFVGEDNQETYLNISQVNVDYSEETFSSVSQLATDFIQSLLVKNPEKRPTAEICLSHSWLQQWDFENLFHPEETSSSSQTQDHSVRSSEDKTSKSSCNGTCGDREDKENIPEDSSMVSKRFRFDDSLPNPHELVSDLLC

[11] = biological target: T11, MARK3 (Homo sapiens, UniProt P27448)
T11 construct: purchased Eurofins DiscoverX KINOMEscan
T11 sequence (P27448 whole entry): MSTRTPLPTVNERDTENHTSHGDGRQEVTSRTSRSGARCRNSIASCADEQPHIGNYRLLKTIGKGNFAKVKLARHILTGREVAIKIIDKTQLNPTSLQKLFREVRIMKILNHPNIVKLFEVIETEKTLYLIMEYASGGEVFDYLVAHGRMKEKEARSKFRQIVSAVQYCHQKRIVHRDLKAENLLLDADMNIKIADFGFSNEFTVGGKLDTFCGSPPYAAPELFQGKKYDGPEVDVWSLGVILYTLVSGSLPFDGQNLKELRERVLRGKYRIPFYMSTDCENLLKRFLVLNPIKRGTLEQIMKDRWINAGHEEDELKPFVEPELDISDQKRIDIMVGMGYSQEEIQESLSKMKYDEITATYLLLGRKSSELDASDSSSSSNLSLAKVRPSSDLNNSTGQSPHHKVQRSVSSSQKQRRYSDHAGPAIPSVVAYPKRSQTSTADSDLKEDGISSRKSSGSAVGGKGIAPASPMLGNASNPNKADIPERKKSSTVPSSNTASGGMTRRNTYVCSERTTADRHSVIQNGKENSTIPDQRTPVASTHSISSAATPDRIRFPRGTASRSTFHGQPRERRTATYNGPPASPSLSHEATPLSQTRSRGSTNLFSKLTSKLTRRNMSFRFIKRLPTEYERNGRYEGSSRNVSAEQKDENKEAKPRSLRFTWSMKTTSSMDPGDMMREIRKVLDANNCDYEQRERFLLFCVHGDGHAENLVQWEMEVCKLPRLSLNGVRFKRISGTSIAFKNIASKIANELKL

T7 sequence (Q07002 whole entry): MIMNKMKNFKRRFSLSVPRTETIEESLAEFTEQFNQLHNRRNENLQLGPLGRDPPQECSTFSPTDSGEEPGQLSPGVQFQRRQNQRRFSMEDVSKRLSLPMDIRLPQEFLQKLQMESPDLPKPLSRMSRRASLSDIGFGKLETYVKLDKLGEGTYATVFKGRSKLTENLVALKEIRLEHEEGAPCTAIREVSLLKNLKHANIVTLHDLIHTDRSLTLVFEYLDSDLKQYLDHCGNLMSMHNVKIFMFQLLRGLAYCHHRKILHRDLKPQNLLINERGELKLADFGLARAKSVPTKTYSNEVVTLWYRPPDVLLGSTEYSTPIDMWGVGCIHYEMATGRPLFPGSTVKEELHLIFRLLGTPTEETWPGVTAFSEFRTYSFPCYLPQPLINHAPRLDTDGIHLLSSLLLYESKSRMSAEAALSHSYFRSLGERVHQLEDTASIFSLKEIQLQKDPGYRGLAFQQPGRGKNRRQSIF
T3 sequence (P53671 whole entry): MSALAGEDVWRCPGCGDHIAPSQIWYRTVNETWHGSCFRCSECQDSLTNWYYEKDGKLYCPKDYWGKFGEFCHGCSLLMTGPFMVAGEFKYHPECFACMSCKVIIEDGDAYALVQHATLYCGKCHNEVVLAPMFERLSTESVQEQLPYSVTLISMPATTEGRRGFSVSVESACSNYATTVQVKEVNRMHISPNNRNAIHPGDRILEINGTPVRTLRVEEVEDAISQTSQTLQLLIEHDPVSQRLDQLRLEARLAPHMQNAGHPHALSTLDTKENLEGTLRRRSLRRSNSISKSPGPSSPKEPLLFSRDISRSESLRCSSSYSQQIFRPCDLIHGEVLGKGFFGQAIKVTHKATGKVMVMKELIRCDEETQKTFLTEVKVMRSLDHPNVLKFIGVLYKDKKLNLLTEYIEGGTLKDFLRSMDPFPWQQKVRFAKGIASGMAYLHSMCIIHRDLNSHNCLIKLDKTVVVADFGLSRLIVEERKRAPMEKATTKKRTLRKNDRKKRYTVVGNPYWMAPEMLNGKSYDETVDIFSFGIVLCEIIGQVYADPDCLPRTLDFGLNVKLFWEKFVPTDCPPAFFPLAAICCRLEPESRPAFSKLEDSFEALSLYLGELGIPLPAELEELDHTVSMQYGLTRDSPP
T9 sequence (P35590 22-1138): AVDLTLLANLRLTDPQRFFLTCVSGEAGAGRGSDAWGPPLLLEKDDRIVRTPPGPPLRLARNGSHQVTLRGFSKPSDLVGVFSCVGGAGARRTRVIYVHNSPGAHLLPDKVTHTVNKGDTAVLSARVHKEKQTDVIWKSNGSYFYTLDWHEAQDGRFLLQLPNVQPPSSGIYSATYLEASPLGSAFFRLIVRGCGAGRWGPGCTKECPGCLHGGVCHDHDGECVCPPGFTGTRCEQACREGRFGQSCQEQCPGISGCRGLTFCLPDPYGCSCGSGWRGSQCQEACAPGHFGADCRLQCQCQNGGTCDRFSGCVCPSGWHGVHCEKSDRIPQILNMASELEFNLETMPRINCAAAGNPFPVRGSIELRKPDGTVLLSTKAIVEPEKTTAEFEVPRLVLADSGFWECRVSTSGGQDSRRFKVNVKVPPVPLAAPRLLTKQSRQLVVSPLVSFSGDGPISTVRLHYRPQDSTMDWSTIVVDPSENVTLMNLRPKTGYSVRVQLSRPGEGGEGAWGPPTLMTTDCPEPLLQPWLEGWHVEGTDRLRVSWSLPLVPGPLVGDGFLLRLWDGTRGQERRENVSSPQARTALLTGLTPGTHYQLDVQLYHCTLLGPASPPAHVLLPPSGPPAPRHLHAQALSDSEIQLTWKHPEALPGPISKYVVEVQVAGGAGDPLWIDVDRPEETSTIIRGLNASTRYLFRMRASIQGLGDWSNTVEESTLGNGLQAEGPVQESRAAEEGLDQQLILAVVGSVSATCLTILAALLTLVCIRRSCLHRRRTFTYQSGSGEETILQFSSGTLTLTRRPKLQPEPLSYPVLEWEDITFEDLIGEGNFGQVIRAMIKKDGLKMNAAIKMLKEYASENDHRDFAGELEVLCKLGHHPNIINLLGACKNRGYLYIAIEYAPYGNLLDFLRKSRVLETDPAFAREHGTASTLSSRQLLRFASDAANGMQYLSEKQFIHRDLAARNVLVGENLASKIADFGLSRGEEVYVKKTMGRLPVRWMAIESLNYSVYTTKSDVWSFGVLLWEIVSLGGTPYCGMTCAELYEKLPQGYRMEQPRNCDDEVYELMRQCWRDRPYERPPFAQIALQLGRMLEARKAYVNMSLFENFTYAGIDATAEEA
T2 sequence (P07949 29-1114 V804M): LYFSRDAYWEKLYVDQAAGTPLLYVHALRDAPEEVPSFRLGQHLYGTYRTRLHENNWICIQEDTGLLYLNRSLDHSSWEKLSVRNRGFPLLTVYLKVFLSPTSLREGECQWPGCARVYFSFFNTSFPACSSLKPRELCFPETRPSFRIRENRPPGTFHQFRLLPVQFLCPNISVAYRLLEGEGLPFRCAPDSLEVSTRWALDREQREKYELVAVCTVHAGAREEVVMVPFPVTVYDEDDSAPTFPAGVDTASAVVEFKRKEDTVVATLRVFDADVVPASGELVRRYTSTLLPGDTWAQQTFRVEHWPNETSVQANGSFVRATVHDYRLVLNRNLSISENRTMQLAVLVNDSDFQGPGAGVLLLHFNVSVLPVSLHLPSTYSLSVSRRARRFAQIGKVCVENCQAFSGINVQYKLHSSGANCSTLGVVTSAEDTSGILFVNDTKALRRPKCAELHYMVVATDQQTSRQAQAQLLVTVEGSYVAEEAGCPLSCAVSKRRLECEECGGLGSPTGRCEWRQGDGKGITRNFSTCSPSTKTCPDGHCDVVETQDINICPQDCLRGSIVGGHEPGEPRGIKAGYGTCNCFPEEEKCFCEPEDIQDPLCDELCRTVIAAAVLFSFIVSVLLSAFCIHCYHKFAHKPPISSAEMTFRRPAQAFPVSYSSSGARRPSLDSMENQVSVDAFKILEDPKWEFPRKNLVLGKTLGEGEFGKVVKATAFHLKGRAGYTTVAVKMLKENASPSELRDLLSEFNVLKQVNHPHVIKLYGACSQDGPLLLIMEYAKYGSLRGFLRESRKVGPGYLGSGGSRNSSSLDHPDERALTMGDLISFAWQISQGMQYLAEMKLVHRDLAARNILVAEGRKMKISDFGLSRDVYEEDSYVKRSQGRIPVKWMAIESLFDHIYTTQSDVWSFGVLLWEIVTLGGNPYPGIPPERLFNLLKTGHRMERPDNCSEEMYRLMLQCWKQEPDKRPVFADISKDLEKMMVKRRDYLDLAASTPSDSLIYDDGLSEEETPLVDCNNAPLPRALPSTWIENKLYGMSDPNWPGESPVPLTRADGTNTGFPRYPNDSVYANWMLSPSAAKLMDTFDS
T4 sequence (P53350 whole entry): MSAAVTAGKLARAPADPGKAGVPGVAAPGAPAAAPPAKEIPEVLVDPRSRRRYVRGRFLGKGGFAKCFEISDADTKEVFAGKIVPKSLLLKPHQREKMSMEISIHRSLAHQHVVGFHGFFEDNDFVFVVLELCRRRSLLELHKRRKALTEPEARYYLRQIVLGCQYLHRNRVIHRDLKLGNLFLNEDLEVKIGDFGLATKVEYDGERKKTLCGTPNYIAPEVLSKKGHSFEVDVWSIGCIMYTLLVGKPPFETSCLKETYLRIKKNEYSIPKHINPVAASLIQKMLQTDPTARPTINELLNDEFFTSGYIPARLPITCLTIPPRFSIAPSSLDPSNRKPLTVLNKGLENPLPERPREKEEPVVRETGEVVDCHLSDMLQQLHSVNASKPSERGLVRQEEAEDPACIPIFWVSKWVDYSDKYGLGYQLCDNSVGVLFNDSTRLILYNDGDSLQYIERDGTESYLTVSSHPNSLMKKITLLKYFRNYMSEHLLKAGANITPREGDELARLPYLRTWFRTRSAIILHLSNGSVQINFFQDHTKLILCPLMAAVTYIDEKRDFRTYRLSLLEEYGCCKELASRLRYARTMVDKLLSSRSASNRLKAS
T6 sequence (P00533 with tags, fused parts or gaps A750P/DEL747-749 limits assumed): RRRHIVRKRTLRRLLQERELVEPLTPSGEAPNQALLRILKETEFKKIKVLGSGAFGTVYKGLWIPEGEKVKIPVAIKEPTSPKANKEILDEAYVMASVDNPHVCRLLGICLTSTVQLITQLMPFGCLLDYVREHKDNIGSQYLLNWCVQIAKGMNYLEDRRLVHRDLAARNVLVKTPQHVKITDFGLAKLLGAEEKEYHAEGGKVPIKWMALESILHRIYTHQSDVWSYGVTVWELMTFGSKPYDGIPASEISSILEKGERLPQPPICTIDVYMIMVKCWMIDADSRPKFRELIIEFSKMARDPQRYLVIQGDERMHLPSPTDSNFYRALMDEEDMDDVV

Compound | remaining binding at 1 µM [1] [%] | remaining binding at 1 µM [2] [%] | remaining binding at 1 µM [3] [%] | remaining binding at 1 µM [4] [%] | remaining binding at 1 µM [5] [%] | remaining binding at 1 µM [6] [%] | remaining binding at 1 µM [7] [%] | remaining binding at 1 µM [8] [%] | remaining binding at 1 µM [9] [%] | remaining binding at 1 µM [10] [%] | remaining binding at 1 µM [11] [%]
Clc1cc(NCC2CC2)c2ncc(-c3ccc4[nH]ncc4c3)n2n1 [compound 2, 6-Chloro-N-(cyclopropylmethyl)-3-(1H-indazol-5-yl)imidazo[1,2-b]pyridazin-8-amine] | 99 | 97 | 94 | 97 | 88 | 87 | 79 | 87 | 99 | 93 | 100
O=C(CN1CCOCC1)N[C@H]1CC[C@H](Nc2cc(Cl)nn3c(-c4ccc5[nH]ncc5c4)cnc23)CC1 [compound 26] | 64 | 82 | 85 | 90 | 100 | 83 | 80 | 59 | 67 | 61 | 99
CN1CCC(CNc2cc(Cl)nn3c(-c4cc5nc(Nc6ccccc6)[nH]c5cc4F)cnc23)CC1 [compound 31, 6-Chloro-3-(6-fluoro-2-(phenylamino)-1H-benzo[d]imidazol-5-yl)-N-((1-methylpiperidin-4-yl)methyl)imidazo[1,2-b]pyridazin-8-amine] | 77 | 100 | 100 | 96 | 92 | 81 | 88 | 100 | 84 | 92 | 60
